# Experimental data taken from US8455014B2, “Composition comprising Trachelospermi caulis and Pyrola japonica extracts for the treatment and prevention of inflammatory diseases” (Sinil Pharmaceutical Co., Ltd., priority 2007, dated 2013).
# Assays:
# [1] = system: TNF-α; conditions: Int Immunopharmacol. 2004; 4(10-11):1419-29; cited from earlier work
# [2] = system: vascular permeability induced by acetic acid; test: Acetic acid-induced vascular permeability in mice; format: in vivo, ICR mice; conditions: Evans blue in abdominal cavity, OD 630 nm
# Description: The inhibitory effect of the mixed herbal extract obtained in the above reference example 3 against vascular permeability was investigated.
# Seven week old ICR mice were separated into each experimental group, orally administered with Trachelospermi caulis extract at a concentration of 20 mg/kg and 200 mg/kg, respectively, Pyrola japonica extract at a concentration of 20 mg/kg and 200 mg/kg, respectively, and a mixed […], respectively, after dissolving them in distilled water to a concentration of 0.1 mL/10 g b.wt., by using a sonde.
# The dosage volume was determined based on the body weight measured on the day of experiment and the control group was only administered with distilled water, a preparation solvent, at a concentration of 0.1 mL/10 g b.wt. Phenylbutazone was orally administered with a dosage of 50 mg/kg b.wt. after suspending it in 0.5% methyl cellulose.
# ICR male mice, which were fasted for 12 hours prior to the experiment, were administered with a test substance according to the method of Whittle (1964). […] The washing solution was collected from the abdominal cavity and then centrifuged at 2,000 rpm for 10 minutes and the supernatant was measured of its optical density at 630 nm by using a spectrophotometer to calculate the amount of Evan's blue solution flowed into the abdominal cavity. […]
# [3] = system: NF-κB; conditions: human keratinocytes; J Dermatol Sci. 2003; 31(3):193-201; cited from earlier work
smiles,measurement,setting,value
COc1ccc(C[C@H]2COC(=O)[C@@H]2Cc2ccc(O[C@@H]3O[C@H](CO)[C@@H](O)[C@H](O)[C@H]3O)c(OC)c2)cc1OC [arctiin],TNF-α inhibitory activity,[1],TNF-α inhibitory activity
COc1ccc2c(c1)c(CC(=O)O)c(C)n2C(=O)c1ccc(Cl)cc1 [indomethacin],Leakage of dye,[2]; 1 mg/kg,36.3 ± 2.67 μg/10 g b. wt.
OC[C@H]1O[C@@H](Oc2ccc(O)cc2)[C@H](O)[C@@H](O)[C@@H]1O [Arbutin],activity of NF-κB,[3],inhibit the activity of NF-κB
COc1cc(C[C@H]2C(=O)OC[C@@H]2Cc2ccc(OC)c(OC)c2)ccc1O [arctigenin],TNF-α inhibitory activity,[1],TNF-α inhibitory activity
CCCCC1C(=O)N(c2ccccc2)N(c2ccccc2)C1=O [phenylbutazone],Leakage of dye,[2]; 50 mg/kg oral,39.0 ± 3.45 μg/10 g b. wt.
